Assay results published in ChEMBL document CHEMBL1201862, “PubChem BioAssay data set” (2004).
Values joined by “and” are separate entries in the source; they are usually repeats but may differ in a detail not shown here. Equal entries are not always repeated.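 Assay format: 96-well plates, 48-hour exposure. At the GI50, growth is halved.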 Active and inactive are the calls of the source. Cut-off read from the data, not from the text of the source: active = GI50 up to about 1.1 µM and inactive = higher.

How the values were obtained:
Assay in all cases: NCI-60 cell line screen, 48 h
[1] = tested on: 786-0
[2] = tested on: A498
[3] = tested on: A549
[4] = tested on: ACHN
[5] = tested on: BT-549
[6] = tested on: CAKI-1
[7] = tested on: CCRF-CEM
[8] = tested on: COLO 205
[9] = tested on: DU-145
[10] = tested on: EKVX
[11] = tested on: HCC 2998
[12] = tested on: HCT-116
[13] = tested on: HCT-15
[14] = tested on: HL-60
[15] = tested on: HOP-62
[16] = tested on: HOP-92
[17] = tested on: HT-29
[18] = tested on: Hs-578T
[19] = tested on: IGROV-1
[20] = tested on: K562
[21] = tested on: KM12
[22] = tested on: LOX IMVI
[23] = tested on: M14
[24] = tested on: MCF7
[25] = tested on: MDA-MB-231
[26] = tested on: MDA-MB-435
[27] = tested on: MDA-N
[28] = tested on: MOLT-4
[29] = tested on: Malme-3M
[30] = tested on: NCI-H226
[31] = tested on: NCI-H23
[32] = tested on: NCI-H460
[33] = tested on: NCI-H522
[34] = tested on: NCI/ADR-RES
[35] = tested on: OVCAR-3
[36] = tested on: OVCAR-4
[37] = tested on: OVCAR-5
[38] = tested on: OVCAR-8
[39] = tested on: PC-3
[40] = tested on: RPMI-8226
[41] = tested on: RXF 393
[42] = tested on: SF-268
[43] = tested on: SF-295
[44] = tested on: SF-539
[45] = tested on: SK-MEL-28
[46] = tested on: SK-MEL-2
[47] = tested on: SK-MEL-5
[48] = tested on: SK-OV-3
[49] = tested on: SN12C
[50] = tested on: SNB-19
[51] = tested on: SNB-75
[52] = tested on: SR
[53] = tested on: SW-620
[54] = tested on: T47D
[55] = tested on: TK-10
[56] = tested on: U-251
[57] = tested on: UACC-257
[58] = tested on: UACC-62
[59] = tested on: UO-31

**Q.** Which results are given for `COc1nc(N)c(/N=C/C(OC(C)=O)C(OC(C)=O)C(COC(C)=O)OC(C)=O)c(=O)n1C` (stereo not drawn)?
**A.** GI50 [1]: > 100 µM (inactive); GI50 [2]: > 100 µM (inactive); GI50 [3]: > 100 µM (inactive); GI50 [4]: > 100 µM (inactive); GI50 [5]: > 100 µM (inactive); GI50 [6]: > 100 µM (inactive); GI50 [7]: > 100 µM (inactive) and 62.2 µM (inactive); GI50 [8]: > 100 µM (inactive); GI50 [9]: > 100 µM (inactive); GI50 [10]: > 100 µM (inactive); GI50 [11]: > 100 µM (inactive); GI50 [12]: > 100 µM (inactive); GI50 [13]: > 100 µM; GI50 [14]: > 100 µM (inactive); GI50 [15]: > 100 µM (inactive); GI50 [16]: > 100 µM (inactive); GI50 [17]: > 100 µM (inactive); GI50 [18]: > 100 µM (inactive); GI50 [19]: > 100 µM (inactive); GI50 [20]: > 100 µM (inactive); GI50 [21]: > 100 µM (inactive); GI50 [22]: > 100 µM (inactive); GI50 [23]: > 100 µM (inactive); GI50 [24]: > 100 µM (inactive); GI50 [25]: > 100 µM (inactive); GI50 [26]: > 100 µM (inactive); GI50 [27]: > 100 µM (inactive); GI50 [28]: > 100 µM (inactive); GI50 [29]: > 100 µM (inactive); GI50 [30]: > 100 µM (inactive); GI50 [31]: > 100 µM (inactive); GI50 [32]: > 100 µM (inactive); GI50 [33]: > 100 µM (inactive); GI50 [34]: > 100 µM (inactive); GI50 [35]: > 100 µM (inactive); GI50 [36]: > 100 µM (inactive); GI50 [37]: > 100 µM (inactive); GI50 [38]: > 100 µM (inactive); GI50 [39]: > 100 µM (inactive); GI50 [40]: > 100 µM (inactive); GI50 [41]: > 100 µM (inactive); GI50 [42]: > 100 µM (inactive); GI50 [43]: > 100 µM (inactive); GI50 [44]: > 100 µM (inactive); GI50 [45]: > 100 µM (inactive); GI50 [46]: > 100 µM (inactive); GI50 [47]: > 100 µM (inactive); GI50 [48]: > 100 µM (inactive); GI50 [49]: > 100 µM (inactive); GI50 [50]: > 100 µM (inactive); GI50 [51]: > 100 µM (inactive); GI50 [52]: > 100 µM (inactive); GI50 [53]: > 100 µM (inactive); GI50 [54]: > 100 µM (inactive); GI50 [55]: > 100 µM (inactive); GI50 [56]: > 100 µM (inactive); GI50 [57]: > 100 µM (inactive); GI50 [58]: > 100 µM (inactive); GI50 [59]: > 100 µM (inactive)

**Q.** What does the source list for `CN(CCCNC(=O)c1c2ccc3ccccc3c2nn1C)CCCNC(=O)c1c2ccc3ccccc3c2nn1C`?
**A.** GI50 [1]: 11.6 µM (inactive); GI50 [2]: 6.9 µM (inactive); GI50 [3]: 12.4 µM (inactive); GI50 [4]: 11.5 µM (inactive); GI50 [5]: 10.6 µM (inactive); GI50 [6]: 1.6 µM (inactive); GI50 [7]: 8.18 µM (inactive); GI50 [8]: 1.81 µM (inactive); GI50 [9]: 17.5 µM (inactive); GI50 [10]: 9.14 µM (inactive); GI50 [11]: 1.87 µM (inactive); GI50 [12]: 4.76 µM (inactive); GI50 [13]: 6.93 µM; GI50 [14]: 10.4 µM (inactive); GI50 [15]: 14.8 µM (inactive); GI50 [16]: 3.21 µM (inactive); GI50 [17]: 2.53 µM (inactive); GI50 [18]: 14.2 µM (inactive); GI50 [19]: 8.79 µM (inactive); GI50 [20]: 3.48 µM (inactive); GI50 [21]: 8.13 µM (inactive); GI50 [22]: 3.15 µM (inactive); GI50 [23]: 2.05 µM (inactive); GI50 [24]: 3.94 µM (inactive); GI50 [25]: 10.5 µM (inactive); GI50 [26]: 2.29 µM (inactive); GI50 [27]: 2.96 µM (inactive); GI50 [28]: 4.85 µM (inactive); GI50 [29]: 3.03 µM (inactive); GI50 [30]: 15.1 µM (inactive); GI50 [31]: 15.1 µM (inactive); GI50 [32]: 4.52 µM (inactive); GI50 [33]: 7.35 µM (inactive); GI50 [34]: 13.6 µM (inactive); GI50 [35]: 16 µM (inactive); GI50 [36]: 11.7 µM (inactive); GI50 [37]: 11.5 µM (inactive); GI50 [38]: 13.3 µM (inactive); GI50 [39]: 12.4 µM (inactive); GI50 [40]: 1.95 µM (inactive); GI50 [41]: 5.94 µM (inactive); GI50 [42]: 11.5 µM (inactive); GI50 [43]: 4.29 µM (inactive); GI50 [44]: 6.24 µM (inactive); GI50 [45]: 2.3 µM (inactive); GI50 [46]: 5.04 µM (inactive); GI50 [47]: 2.23 µM (inactive); GI50 [48]: 15 µM (inactive); GI50 [49]: 12.4 µM (inactive); GI50 [50]: 14.9 µM (inactive); GI50 [51]: 8.2 µM (inactive); GI50 [52]: 3 µM (inactive); GI50 [53]: 7.74 µM (inactive); GI50 [54]: 7.62 µM (inactive); GI50 [55]: 2.67 µM (inactive); GI50 [56]: 7.85 µM (inactive); GI50 [57]: 1.9 µM (inactive); GI50 [58]: 1.87 µM (inactive); GI50 [59]: 6.47 µM (inactive)
